Here are results for 7 compounds from patent publication US5304549A, “Amino acid derivatives” (Hoffmann-La Roche Inc., priority 1991, dated 1994).

Structures can show the parent of a compound that is named as a salt.

Broadly, the IC50 is the point on the concentration scale where inhibition reaches its midpoint. Low values mean greater potency, high ones weaker potency.

For the assay, the target named is T1, collagenase obtained from a culture of human synovial fibroblasts (Homo sapiens, UniProt P03956).
T1 construct: endogenous in cells; host or cells: human synovial fibroblasts in culture (conditioned medium)
T1 sequence (P03956 100-469): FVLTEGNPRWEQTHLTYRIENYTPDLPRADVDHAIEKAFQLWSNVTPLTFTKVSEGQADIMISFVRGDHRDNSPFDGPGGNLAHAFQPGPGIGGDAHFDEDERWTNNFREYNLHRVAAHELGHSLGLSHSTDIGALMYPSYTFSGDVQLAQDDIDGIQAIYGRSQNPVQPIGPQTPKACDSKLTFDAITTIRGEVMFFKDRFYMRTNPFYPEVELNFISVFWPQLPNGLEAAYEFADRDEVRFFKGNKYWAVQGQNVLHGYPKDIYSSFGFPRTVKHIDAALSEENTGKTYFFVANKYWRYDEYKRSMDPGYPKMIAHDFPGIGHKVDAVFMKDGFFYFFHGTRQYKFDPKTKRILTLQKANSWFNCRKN
As to the kind of experiment: in vitro collagenase inhibiting activity (14C-acetylated collagen type I from rat tail tendons as substrate, microtitre plate assay). Conditions: human synovial fibroblast collagenase, trypsin-activated; 14C-acetylated rat tail tendon collagen type I. The assay is classed as biochemical.

Consider `CNC(=O)[C@@H](NC(=O)C(CC(C)C)CP(=O)(O)CN1C(=O)c2cccc3c(O)c(Br)cc(c23)C1=O)C(C)(C)C` (single isomer, unassigned) [Compound B, N^2-[2(R or S)-[[[(5-bromo-2,3-dihydro-6-hydroxy-1,3-dioxo-1H-benz[d,e]isoquinol-2-yl)methyl](hydroxy)phosphinyl]methyl]-4-methylvaleryl]-N^1,3-dimethyl-L-valinamide], for which 4 nM corresponded to half-maximal inhibition (IC50).
Regarding `CNC(=O)C(NC(=O)C(CC(C)C)C(N)P(=O)(O)CN1C(=O)c2cccc3c(O)c(Br)cc(c23)C1=O)C(C)(C)C` (single isomer, unassigned) [Compound C, N^2-[2-(R or S)-[[(R)-(amino)-[(5-bromo-2,3-dihydro-6-hydroxy-1,3-dioxo-1H-benz[d,e]isoquinol-2-yl)methyl](hydroxy)phosphinyl]methyl]-4-methylvaleryl]-N^1,3-dimethyl-L-valinamide hydrobromide], half-maximal inhibition (IC50) required 9 nM.
To `CNC(=O)[C@@H](NC(=O)[C@H](CC(C)C)C(CCCC(=O)OC)C(=O)NO)C(C)(C)C` (single isomer, unassigned) [Compound F, N^2-[2(R)-[1(R or S)-(hydroxycarbamoyl)-4-(methoxycarbonyl)butyl]-4-methylvaleryl]-N^1,3-dimethyl-L-valinamide] belongs 0.9 nM; to `CNC(=O)[C@@H](NC(=O)[C@H](CC(C)C)C(CCCc1ccccc1)C(=O)NO)C(C)(C)C` (single isomer, unassigned) [Compound G, N^2-[2(R)-[1(R or S)-(hydroxycarbamoyl)-4-phenylbutyl]-4-methylvaleryl]-N^1,3-dimethyl-L-valinamide], 1.9 nM; to `CNC(=O)[C@@H](NC(=O)[C@H](CC(C)C)C(CN1C(=O)CCC1=O)C(=O)NO)C(C)(C)C` (single isomer, unassigned) [Compound H, N^2-[2(R)-[1(R or S)-(hydroxycarbamoyl)-2-succinimidoethyl]-4-methylvaleryl]-N^1,3-dimethyl-L-valinamide], 0.5 nM.
To `CNC(=O)[C@@H](NC(=O)C(CC(C)C)[C@H](C)C(=O)NO)C(C)(C)C` (single isomer, unassigned; isomer 2) [Compound D, N^2-[2(R or S)-[1(S)-(hydroxycarbamoyl)ethyl]-4-methylvaleryl]-N^1,3-dimethyl-L-valinamide (isomer 2)] belongs 2 nM.
Next, `CNC(=O)[C@@H](NC(=O)[C@@H](CC(=O)NO)CC(C)C)C(C)(C)C` [Compound A, N^2-[2(R)-[Hydroxycarbamoylmethyl]-4-methylvaleryl]-N^1,3-dimethyl-L-valinamide]: 4 nM.
